Where no end group is shown, it is not given here.
Tests used:
[1] = Brain Uptake Index (BUI) method; format: in vivo; conditions: for Mean BUI: carotid artery bolus, decapitated after 15 seconds, relative to 14C-Butanol
Experimental: BUI is calculated according to the following equation: [formula] BUI was performed on three animals from the same test solution for each experiment. Each compound was assayed in duplicate.

[2] = biological target: T1, fibrillar Beta-Amyloid Protein (BAP 1-40) (Homo sapiens, UniProt P05067); test: Amyloid binding on SPA beads; conditions: 180 minutes at room temperature, equimolar amounts, non-specific binding subtracted
T1 construct: 25 μl BAP 1-40 (10 mg/ml, Biosource 03-138); purchased Biosource 03-138 (BAP 1-40); 03-243 (biotinylated BAP 1-40)
Experimental: The binding of Compound 1 (74 TBq/mmol) was determined compared to the ability of ^125I-beta amyloid protein 1-40 (^125I-BAP 1-40, Amersham Biosciences IM294)) to bind to amyloid 140 fibrils. Amyloid binding was essentially performed as follows.
Three fresh buffer stocks were prepared for experiments: Buffer 1, 50 mM HEPES/0.1 % Bovine Serum Albumin (BSA) pH 7.5; Buffer 2, 50 mM HEPES/0.1% BSA/400 μM ZnCl2 pH 7.5; Buffer 3, 50 mM HEPES/0.1% BSA/100 μM ZnCl2 pH 7.5.
Streptavidin coated scintillation proximity assay beads (SA-SPA beads, Amersham Biosciences) were used to immobilise fibrillar Beta-Amyloid Protein (BAP 1-40). Amyloid coated beads (SPA-BAP) were prepared by incubating 250 μl SA-SPA beads (100 mg/ml) with 250 μl Buffer 2, 425 μl Buffer 1, 50 μl biotinylated BAP 1-40 (0.5 mg/ml, Biosource 03-243), 25 μl BAP 1-40 (10 mg/ml, Biosource 03-138). Non-specific binding SPA beads (SPA-NSB) were prepared to assess the binding of compounds to SPA beads with no associated BAP 1-40 fibrils in the following incubation: 250 μl SA-SPA beads (100 mg/ml) with 250 μL Buffer 2,500 μl Buffer 1.
SPA-BAP and SPA-NSB incubations were left for 24 hours at room temperature and then spun 1.5 ml tubes (eppendorf, Merk, 306/0421/12) for 2 minutes at 1000×g. The supernatants were removed and the beads were washed twice by resuspending them in 1 ml Buffer 3 followed by centrifugation for 2 minutes at 1000×g. Finally, washed SPA-BAP and SPA-NSB beads were resuspended in 1 ml Buffer 3.
Amyloid binding of ^125I-BAP 1-40 and Compound 1 was performed in triplicate in 0.5 ml tubes (eppendorf, Merk, 306/0421/02) by adding 50 μl SPA-BAP beads to 25 μl Buffer 2 and 25 μl labelled compound (^125I-BAP 1-40 or Compound 1). Tubes were then incubated for 180 minutes at room temperature with shaking, followed by centrifugation for 2 minutes at 1000×g. The supernatants were removed and SPA-BAP pellet washed twice with 300 μl Buffer 3 containing 1% TWEEN-20 (Sigma, P7949). Non-specific binding for labelled compounds to the SPA beads was determined using incubations as described above but by substituting SPA-BAP beads with SPA-NSB beads. Radioactivity associated with the washed SPA bead pellets was then determined.
The affinity of labelled compounds for fibrillar BAP 1-40 was estimated by subtracting SPA-NSB associated counts from SPA-BAP associated counts. The binding of labelled compounds was then compared to ^125I-BAP binding, which was taken as being 100%.
In these experiments, ^125-BAP 1-40 or Compound 1 were added in equimolar amounts (between 1-5×10^−11 mmoles per incubation).

CACO-2 cells = test: CACO-2 cell apparent permeability (Papp), BBB model; conditions: CACO-2 monolayers in Transwells, 30 minutes at 37° C., donor to acceptor
Experimental: Culturing of CACO-2 cells and Determination of Apparent Permeability (Papp) Values:
The seeding of 12 mm Transwells was as follows for CACO-2. Flasks of confluent cultures were trypsinsed and cells were carefully resuspended, making sure there are no clumps or air bubbles. 1.5 ml of tissue culture medium was placed in the bottom (acceptor) chamber of the wells and 0.5 ml containing 2×10^5 cells in the Transwell (donor chamber) and placed in the incubator. The cells were routinely monitored for adequate trans epithelial electrical resistance (TEER) using an EndOhm Tissue resistance measurement chamber (WPI). The subsequent maintenance and feeding of the cells on the Transwells was as follows: when feeding the wells, the medium was removed from the acceptor chamber (basolateral side) and donor chamber (apical side) of the Transwells. The medium was aspirated off with a pipette connected to a vacuum pump, being careful not to touch the filter. 0.5 ml of growth medium was then placed into the donor chamber and 1.5 ml of growth medium was placed into the acceptor chamber.
When the TEER values of the CACO-2 cell monolayers in Transwells was around 500 Ωcm^2 (300-800 Ωcm^2 was considered acceptable) permeability experiments were performed in triplicate as follows. All culture media was removed and acceptor and donor chambers were rinsed twice with Eagles Balance Salt Solution (EBSS) (Gibco) at 37° C. 1.5 ml EBSS was added to the acceptor chamber and 0.5 ml EBSS containing radiolabelled compound was added to the donor chamber. Cultures in Transwells were then incubated for 30 minutes at 37° C. at 200 rpm using a Labnet Vortemp. After 30 minutes, 100 μl aliquot was taken from the donor chamber and 750 μl from the acceptor chamber. These aliquots were then counted for radioactivity. The remaining EBSS was removed from the acceptor and donor chambers and then the Transwell was thoroughly rinsed three times la with EBSS. Next, the Transwell membrane (and associated cells) was removed using a scalpel and the amount of radiolabel associated with it was determined.
Permeability of compounds were determined by calculating their Papp value: Papp=ΔQ/Δt.60.A.Co (cm/sec)

[3] = Pharmacokinetics / biodistribution; format: in vivo, normal male wistar rats; conditions: for percentage injected dose, Blood / percentage injected dose, Brain / percentage injected dose, Fat / percentage injected dose, Kidney / percentage injected dose, LI (large intestines) / percentage injected dose, Muscle / percentage injected dose, SI (small intestines) / percentage injected dose, Skin / percentage injected dose, Spleen / percentage injected dose, Stomach / percentage injected dose, inj site / percentage injected dose, liver / percentage injected dose, lung / percentage injected dose, thyroid / percentage injected dose, urine: tail vein
Experimental: Compound 1 IMQ1961 prepared by Amersham Biosciences 250 μCi/ml (specific activity 2000Ci/mmol) freshly diluted to give 1 μCi/0.1 ml volume injection bolus. 15 normal male wistar rats 150-180 g (Charles River).
Male wistar rats were anaethetised briefly prior to injection with Compound 1 (1 μCi, 0.1 ml bolus tail vein). Biodistributions were performed at five time points (5, 15, 30, 60 and 120 mins) in triplicate animals in which tissues from brain, blood, muscle, kidney, spleen, stomach, small intestines, large intestines and faeces, bladder and urine, fat, skin and thyroid were dissected and counted for distribution of the compound in the body in a Wallac Wizzard gamma counter.
Percentage injected dose calculations were made and plotted using the Qk pharmacokinetics program to determine t½ α, and volume of distribution (VD). Relative retention (RR) and Brain:tissue ratios were calculated as follows; [formula] [formula] Results and Discussion

Capillary depletion = conditions: carotid bolus, brain removed ten seconds after injection
Experimental: Compounds that may appear to cross the blood-brain barrier may be sticking to the vasculature within the brain, rather than entering the brain parenchyma. For this reason a capillary depletion method was employed that separates the capillaries from brain homogenate.
Male Wistar rats weighing 150-250 g were deeply anaesthetised by the administration of 55 mg/kg sodium pentabarbital (Rhone-Meriaux) by intra peritoneal injection. The left common carotid artery was exposed by blunt dissection, and 100 μl of test solution injected in a single bolus into the carotid using a 30G needle and 1ml syringe (injection time ˜1 second). The injectate contained both the test/validation compound and ^14C— or ^3H-Sucrose (Amersham Biosciences) as a non-diffusable standard. Ten seconds after injection, the animal was decapitated and the brain removed. […] Pellet, supernatant and a sample of injection solution were counted on a Rackbeta Excel scintillation counter, after the addition of 10 ml Hionic Fluor scintillant (Packard). ^14C/^3H-Sucrose served to correct for vascular volume of vessels contained in the pellet, and also activity that had leaked from the vasculature into the supernatant during the homogenisation procedure.
Volumes of distribution for pellet and supernatant were calculated as shown below. Data is expressed as ratio of volume of distribution in the supernatant to pellet. […]

In situ brain perfusion = format: in vivo; design: unit not given here; conditions: unidirectional brain influx constant, perfusion 2-30 minutes
LogP and delta LogP = format: physicochemical

T1 sequence (P05067 672-711 limits assumed): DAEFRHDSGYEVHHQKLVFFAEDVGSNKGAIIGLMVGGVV

## ^14C-FDG [reference compound]
[1]
  Mean BUI: 17.98

## ^99mTc-Pn216-KKLVFF (BAP 15-20): ^99mTc-labelled BAP sequence responsible for the binding of BAP to itself
[2]
  Amyloid binding (% of 125I-BAP 1-40): 9%

## ^125I-KKLVFFA (BAP 15-21): ^125I-labelled BAP 15-21 sequence (Amersham Biosciences) (not fully specified (N-terminus); also: 125I label, site not given here)
[2]
  Amyloid binding (% of 125I-BAP 1-40): 21%

## CN1C(=O)CN=C(c2ccccc2)c2cc(Cl)ccc21 [^14C-diazapam, ^14C-diazepam]
CACO-2 cells
  Papp: 24.4 ×10⁻⁶ cm/s

## ^125I-BAP 1-40: ^125I-beta amyloid protein 1-40, Amersham Biosciences IM294; reference taken as 100% binding
[2]
  Amyloid binding (% of 125I-BAP 1-40): 100%

## OCC(O)C(O)C(O)C(O)[14CH2]O (centres unmarked) [^14C-mannitol]
CACO-2 cells
  Papp: 3.63 ×10⁻⁶ cm/s

## Cc1cc(-c2nc3cc([125I])ccc3s2)ccc1N [Compound 1, 5-[^125I]-iodo-2-(4′-amino-3′-methylphenyl)benzothiazole]
[2]
  Amyloid binding (% of 125I-BAP 1-40): 27%
[3]; 1 μCi tail vein bolus
  t½ (α) of clearance from brain: 12.4 min
[3]; 5 minutes
  relative retention, blood: 1.04
  relative retention, brain: 1.01
[3]; over two hour experiment, indicates in vivo stability to deiodination
  thyroid uptake: < 1%
[3]; rat, in vivo
  Clearance through the body: largely via the hepatobiliary system
[3]; 5 min
  percentage injected dose, Blood: 6.05 % ID
  percentage injected dose, Brain: 0.94 % ID
  percentage injected dose, Fat: 30.82 % ID
  percentage injected dose, Kidney: 3.14 % ID
  percentage injected dose, LI (large intestines): 1.53 % ID
  percentage injected dose, Muscle: 21.49 % ID
  percentage injected dose, SI (small intestines): 9.04 % ID
  percentage injected dose, Skin: 8.92 % ID
  percentage injected dose, Spleen: 0.69 % ID
  percentage injected dose, Stomach: 1.82 % ID
  percentage injected dose, inj site: 2.12 % ID
  percentage injected dose, liver: 19.47 % ID
  percentage injected dose, lung: 1.40 % ID
  percentage injected dose, thyroid: 0.16 % ID
  percentage injected dose, urine: 0.04 % ID
[3]; 15 min
  percentage injected dose, Blood: 4.14 % ID
  percentage injected dose, Brain: 0.75 % ID
  percentage injected dose, Fat: 36.31 % ID
  percentage injected dose, Kidney: 1.60 % ID
  percentage injected dose, LI (large intestines): 1.77 % ID
  percentage injected dose, Muscle: 19.83 % ID
  percentage injected dose, SI (small intestines): 12.60 % ID
  percentage injected dose, Skin: 12.80 % ID
  percentage injected dose, Spleen: 0.32 % ID
  percentage injected dose, Stomach: 2.56 % ID
  percentage injected dose, inj site: 1.86 % ID
  percentage injected dose, liver: 7.48 % ID
  percentage injected dose, lung: 0.49 % ID
  percentage injected dose, thyroid: 0.16 % ID
  percentage injected dose, urine: 2.10 % ID
[3]; 30 min
  percentage injected dose, Blood: 3.58 % ID
  percentage injected dose, Brain: 0.49 % ID
  percentage injected dose, Fat: 59.02 % ID
  percentage injected dose, Kidney: 0.95 % ID
  percentage injected dose, LI (large intestines): 1.90 % ID
  percentage injected dose, Muscle: 12.59 % ID
  percentage injected dose, SI (small intestines): 21.93 % ID
  percentage injected dose, Skin: 16.90 % ID
  percentage injected dose, Spleen: 0.19 % ID
  percentage injected dose, Stomach: 6.66 % ID
  percentage injected dose, inj site: 3.05 % ID
  percentage injected dose, liver: 4.46 % ID
  percentage injected dose, lung: 0.48 % ID
  percentage injected dose, thyroid: 0.39 % ID
  percentage injected dose, urine: 1.63 % ID
[3]; 60 min
  percentage injected dose, Blood: 2.77 % ID
  percentage injected dose, Brain: 0.29 % ID
  percentage injected dose, Fat: 73.92 % ID
  percentage injected dose, Kidney: 0.63 % ID
  percentage injected dose, LI (large intestines): 7.75 % ID
  percentage injected dose, Muscle: 7.79 % ID
  percentage injected dose, SI (small intestines): 28.42 % ID
  percentage injected dose, Skin: 17.14 % ID
  percentage injected dose, Spleen: 0.15 % ID
  percentage injected dose, Stomach: 8.98 % ID
  percentage injected dose, inj site: 1.83 % ID
  percentage injected dose, liver: 3.12 % ID
  percentage injected dose, lung: 0.34 % ID
  percentage injected dose, thyroid: 0.17 % ID
  percentage injected dose, urine: 8.39 % ID
[3]; 120 min
  percentage injected dose, Blood: 2.27 % ID
  percentage injected dose, Brain: 0.18 % ID
  percentage injected dose, Fat: 55.62 % ID
  percentage injected dose, Kidney: 0.45 % ID
  percentage injected dose, LI (large intestines): 3.12 % ID
  percentage injected dose, Muscle: 5.60 % ID
  percentage injected dose, SI (small intestines): 26.86 % ID
  percentage injected dose, Skin: 12.89 % ID
  percentage injected dose, Spleen: 0.08 % ID
  percentage injected dose, Stomach: 9.29 % ID
  percentage injected dose, inj site: 2.62 % ID
  percentage injected dose, liver: 2.39 % ID
  percentage injected dose, lung: 0.23 % ID
  percentage injected dose, thyroid: 0.95 % ID
  percentage injected dose, urine: 10.02 % ID
Capillary depletion
  Ratio of VD supernatant/pellet: 7.2
In situ brain perfusion
  Kin: 49.8
LogP and delta LogP
  LogP: 1.75
  ΔLogP: −0.38
[1]
  Mean BUI: 43.6
[1]; cut off low/medium 20%
  BBB penetration (from BUI): medium to high BBB penetration
CACO-2 cells
  Papp: 13.7 ×10⁻⁶ cm/s

## O=C[C@H](O)[C@@H](O)[C@H](O)[C@H](O)CO [^14C-Glucose, ^14C-glucose]
CACO-2 cells
  Papp: 57.9 ×10⁻⁶ cm/s
